Experimental findings from patent US10736912B2, “Compositions containing PUFA and/or uridine and methods of use thereof” (MASSACHUSETTS INSTITUE OF TECHNOLOGY, priority 2005, dated 2020) are described below.

Each structure is given as a SMILES string.

Assay [1] concerns brain phospholipid levels. Briefly: Brain phospholipid levels in rat pups of treated pregnant and nursing mothers. The assay is classed as in vivo. To be noted: for PC / PE / PI / SM / Total Phospholipids: rat pups, postnatal day 20, mean. How it is done: In another study, pregnant rats were allowed to consume ad libitum, for 10 days before parturition and 20 days while nursing, either a choline-containing control diet or this diet supplemented with uridine as UMP; half of each group also received DHA or its diluent daily, by gavage. Pups were then sacrificed and brain slices were examined to determine numbers of hippocampal dendritic spines.
Pregnant and nursing rats were administered DHA and/or uridine as described in Example 9. At 20 days post-birth, rats were sacrificed and brain samples were obtained and assayed for phospholipids. Administration of DHA alone increased brain PC, PI, PE, and sphingomyelin (SM) per cell (DNA) by 36, 166, 38, and 78%, respectively. UMP markedly amplified the effects of DHA to 66, 210, 68, and 99% of control, respectively (Table 8). These increases were greater than those observed in adult animals. Similar results were obtained when normalizing to protein (Table 9). Thus, administration of DHA and/or uridine to pregnant and nursing mothers is able to increase phospholipid levels in the offspring.

Assay [2] has as its system brain phospholipid levels. Put plainly: Brain phospholipid levels in gerbils given UMP diet and/or PUFA by gavage. The assay is classed as in vivo, gerbil. How it is done: (§1) Cells were homogenized in 100 volumes of ice-cold deionized water using a tissue degrader (Polytron PT 10-35, Kinematica AG, Switzerland); 1 ml of aliquots were then mixed with 3 ml of chloroform+methanol mixture (2:1 v/v) and vortexed vigorously for 30 seconds. After cooling for 1 h on ice, the mixture was mixed sequentially with 3 ml of chloroform+methanol mixture (2:1 v/v) and 1 ml of ice-cold deionized water. The mixture was vortexed vigorously and allowed to stand overnight in the cold room (18 h). The organic (lower) and aqueous (upper) phases of the mixtures were separated by centrifugation (10 min at 4° C.; 1000 g). An aliquot (2 ml) of the upper phase was used for determination of CDP-Choline (see below), and 0.1-0.4 ml aliquots of the lower phase were dried under vacuum for phospholipid analysis. Residues of 0.1 ml aliquots of the lower phase were assayed for total phospholipid content by measuring phosphorus. Residues of 0.4 ml aliquots of the lower phase were reconstituted in 40 μl methanol and subjected to thin-layer chromatography using silica G plates (Adsorbosil Plus-1®, Alltech), and a system consisting of chloroform/ethanol/triethylamine/water (30:34:30:8) as the mobile phase. Phospholipid standards were used to identify the corresponding bands under UV light after the plates were sprayed with 0.1% diphenylhexatriene in petroleum ether. Bands for individual phospholipid classes (PC, PE, SM, PS and PI) were scraped off the plates and extracted into 1 ml of methanol; dried under vacuum; and assayed for phosphorus content. Total phosphorus was determined by comparison with standard curves by using KH2PO4 run with each assay. To each sample was added 0.5 ml of 4.5% HclO4/27% H2SO4 and tubes were heated at 180° C. for 3 h. After cooling to room temperature, 5 ml of the color reagent (a 10:1 dilution of solutions containing 2.5 mg/ml ammonium molybdate, 8.2 mg/ml sodium acetate and 100 mg/ml ascorbic acid respectively) was added and the tubes were incubated for 2 h, 37° C. Absorbance was measured spectrophotometrically at 820 nm. Phospholipid mass was determined by multiplying the phosphorus content by 25.
Control standard diet (Table 4) consisted of Teklad Global 16% protein rodent diet (Harlan Teklad, Madison, Wis.), which contained 0.1% choline chloride (CC), corresponding to a daily dose of 50 mg/kg/day. UMP was provided as 0.5% UMP·2Na^+ weight/weight, added to the control diet, also prepared by Harlan Teklad, corresponding to 240 mg/kg/day UMP. DHA was administered as 300 mg/kg/day in 200 microliter (mcL)/day 5% Arabic Gum solution, while groups not receiving DHA were administered vehicle (5% Arabic Gum) alone. DHA was provided by Nu-Chek Prep (Elysian, Minn.) and UMP by Numico (Wagenigen, NL).
Gerbils were anesthetized with ketamine and xylazine (80 and 10 mg/kg bwt, i.p.) and sacrificed by immersing the head into liquid nitrogen for 2 min, followed by decapitation. Brains were immediately and quickly (30 seconds) removed using a bone rongeur and stored at −80° C.
Frozen brain hemispheres were weighed and homogenized in 100 volumes of ice-cold deionized water using a tissue degrader (Polytron PT 10-35, Kinematica AG, Switzerland), then analyzed as described in Example 1.
Protein in whole brain homogenate sample was measured for using bicinchoninic acid reagent (Perkin Elmer, Norwalk, Conn., USA). DNA was measured by measuring 460 nm emission of samples on a fluorometer in the presence of bisbenzimidizole, a fluorescent dye known as Hoechst H 33258 (American Hoechst Corporation), which has an excitation maximum at 356 nm and an emission maximum of 458 when bound to DNA.
Male gerbils weighing 80-100 g were divided into 4 groups of 8 gerbils and administered the supplements depicted in Table 1: […]

In another assay the test system is PC-12 cells. Briefly: 14C-choline incorporation into phospholipids in PC-12 cells. The assay is classed as cell-based. How it is done:
PC-12 cells were maintained in Dulbecco's modified Eagle's medium (DMEM)+10% fetal bovine serum (FBS). For experiments, cells were grown in quintuplicate collagen-coated 35 millimeter (mm) dishes. Cells were incubated for 18 hours (hr) in serum-free DMEM containing 28 μM choline+/−5 micromolar (μM) of DHA, oleic acid, or palmitic acid. Cells were then labeled for 2.5 hr with 0.5 microcurie (μCi)/ml ^14C-choline in serum-free DMEM containing 10-micromolar (μM) choline.
as §1, with “To each sample was added 0.5 ml of 4.5% HclO4/27% H2SO4 and tubes were heated at 180° C. for 3 h. After cooling to room temperature, 5 ml of the color reagent (a 10:1 dilution of solutions containing 2.5 mg/ml ammonium molybdate, 8.2 mg/ml sodium acetate and 100 mg/ml ascorbic acid respectively) was added and the tubes were incubated for 2 h, 37° C.” left out
In order to assess the effect of omega-3 fatty acids on phospholipid synthesis, PC-12 cells were incubated with ^14C-labeled choline, following an 18-hour pre-incubation with or without DHA. Incorporation of label into phospholipids was then measured. […]
To further characterize the stimulation of phospholipid synthesis by omega-3 fatty acids, PC-12 cells were pre-treated with different doses of DHA and exposed to labeled choline as described in Example 1, then incorporation of ^14C-label into phospholipids was measured. […]

The mark [3] stands for this setting: Table 9, nmol per microgram DNA.

In assay [1] (Table 8, nmol per mg protein), `CCC=CCC=CCC=CCC=CCC=CCC=CCCC(=O)O` [DHA, 4,7,10,13,16,19-docosahexaenoic acid] yielded a PC of 115.7 nmol/mg protein, a PE of 95.7 nmol/mg protein, a PI of 5.49 nmol/mg protein and an SM of 7.52 nmol/mg protein. In assay [1] (Table 8, nmol per mg protein), the “Total Phospholipids” value is on record as 322.8 nmol/mg protein. In assay [1] (setting [3]), this compound came in with a PC of 12.02 nmol/microgram DNA, a PE of 9.98 nmol/microgram DNA, a PI of 0.571 nmol/microgram DNA and an SM of 0.792 nmol/microgram DNA. In addition, the “Total Phospholipids” value in assay [1] (setting [3]) was 33.80 nmol/microgram DNA. Besides, in assay [1] (rat pups 20 days post-birth), the “Increase in brain PC per cell (DNA)” value came out at 36%, the “Increase in brain PE per cell (DNA)” value came out at 38%, the “Increase in brain PI per cell (DNA)” value is recorded as 166% and the “Increase in brain sphingomyelin (SM) per cell (DNA)” value is listed as 78%. Besides, the “Brain phospholipid levels” value in assay [2] (3 weeks, Table 6) is “increased”. In addition, the “Increase in levels of total phospholipids over control group” value in assay [2] (4 weeks, gerbil brain) was 12%. In addition, in assay [2] (Table 5 part A), the “Total PtdCho” value worked out at 185 ± 12 nmol/mg prt, the “Total PtdEtn” value was determined as 78 ± 5 nmol/mg prt, the “Total PtdSer” value turned out to be 39 ± 3 nmol/mg prt and the “Total Ptdins” value is 32 ± 2 nmol/mg prt. Further, in the assay on PC-12 cells (5 μM fatty acid, 18 hr pre-incubation, then 14C-choline 2.5 hr, FIG. 1), the “Phosphatidylcholine (PC) synthesis significantly increased (incorporation of 14C label into PC)” value is given as “significantly increased”. Further, in the assay on PC-12 cells (different doses of DHA, FIG. 2), the “Augmentation of phospholipid synthesis” value is recorded as “dose-dependent”.
